The test system of assay [1] is HCV replicon in cell line ET (luc-ubi-neo/ET), Huh7 human hepatoma cells. Description: HCV subgenomic replicon assay (luciferase end point). The class given is cell-based. How it is done: The anti-HCV activity of cyclosporine derivatives were evaluated in the HCV subgenomic replicon assay. The assay use the cell line ET (luc-ubi-neo/ET), which is a Huh7 human hepatoma cell line harboring an HCV replicon with a stable luciferase (Luc) reporter. HCV RNA replication was assessed by quantifying HCV replicon-derived luciferase activity. The antiviral activity of cyclosporine analogs were evaluated after drug treatment, the EC 50 and EC 90 were determined in subsequent assessments by using the luciferase end point (Krieger, N., et al., 2001, J. Virol. 75, 4614-4624; Pietschmann, T., et al., 2002, J. Virol. 76, 4008-4021; each of which is incorporated herein by reference).

For a further assay, the system named is HCV. Conditions: reported in Hopkins, S. et al., 2010; read-out: in vitro anti-HCV activity (EC50); cited from earlier work.
Setting [2] is: HCV replicon-derived luciferase activity, Huh7 ET cells, read-out: Antiviral activity: IC50.

Like-named read-outs stand apart in the source and are kept apart here. *1 amine or outer side, *2 acyl side, *3 side chain or, on linkers, in order; H or OH if unused. Where a SMILES comes first, the peptide text is derived from it. [ ]: non-standard residue; d: D form. ξ: configuration not given here. MeBmt = C/C=C/C[C@@H](C)[C@@H](O)[C@H](NC)C(=O)O; X3 = CN(C)CCC[C@H](C(=O)[*:2])N(C)[*:1]; NMeIle(3ξ) = CCC(C)[C@H](NC)C(=O)O; NMeL = CN[C@@H](CC(C)C)C(=O)O; NMeV = CN[C@H](C(=O)O)C(C)C; Abu = CC[C@H](N)C(=O)O Where only a bound is given, the exact number is not on record here.

Take `C/C=C/C[C@@H](C)[C@@H](O)[C@H]1C(=O)N[C@@H](CC)C(=O)N(C)[C@H](CCCN(C)C)C(=O)N(C)[C@@H](C(C)CC)C(=O)N[C@@H](C(C)C)C(=O)N(C)[C@@H](CC(C)C)C(=O)N[C@@H](C)C(=O)N[C@H](C)C(=O)N(C)[C@@H](CC(C)C)C(=O)N(C)[C@@H](CC(C)C)C(=O)N(C)[C@@H](C(C)C)C(=O)N1C` (stereo partly drawn) [Example 45, [(R)-3-(N,N-Dimethylamino)propyl-Sar]-3-[NMeIle]-4-cyclosporin] (cyclo(A[dA][NMeL][NMeL][NMeV][MeBmt][Abu][X3][NMeIle(3ξ)]V[NMeL])): in assay [1] (Hepatitis C virus, Huh-7, read-out: Antiviral activity: IC50 (μM)), the IC50 is under 0.25 µM. For the compound `C/C=C/C[C@@H](C)[C@@H](O)[C@H]1C(=O)N[C@@H](CC)C(=O)N(C)[C@H](SCCN(C)C)C(=O)N(C)[C@@H](CC(C)(C)O)C(=O)N[C@@H](C(C)C)C(=O)N(C)[C@@H](CC(C)C)C(=O)N[C@@H](C)C(=O)N[C@H](C)C(=O)N(C)[C@@H](CC(C)C)C(=O)N(C)[C@@H](CC(C)C)C(=O)N(C)[C@@H](C(C)C)C(=O)N1C` [SCY-635], the EC50 in the assay with HCV is 100 nM. In the case of `C/C=C/C[C@@H](C)[C@@H](O)[C@H]1C(=O)N[C@@H](CC)C(=O)N(C)C(CCCN(C)C)C(=O)N(C)[C@@H](CC(C)C)C(=O)N[C@@H](C(C)C)C(=O)N(C)[C@@H](CC(C)C)C(=O)N[C@@H](C)C(=O)N[C@H](C)C(=O)N(C)[C@@H](CC(C)C)C(=O)N(C)[C@@H](CC(C)C)C(=O)N(C)[C@@H](C(C)C)C(=O)N1C` (stereo partly drawn) [[(R,S)-3-(N,N-Dimethylamino)propyl-Sar]-3-cyclosporin], in assay [1] (setting [2]), the IC50 was under 1.5 µM.

Take “[(R)-2-(N,N-Dimethylamino)ethyl-Sar]-3-[NMeLeu]-4-cyclosporin”: the IC50 in assay [1] (setting [2]) is under 0.25 µM. “[(R,S)-2-(N,N-Dimethylamino)ethyl-Sar]-3-cyclosporin”: in assay [1] (setting [2]), the IC50 was under 1.5 µM.

As for “[(S)-2-(N,N-Diethylamino)ethyl-Sar]-3-cyclosporin”, the IC50 in assay [1] (setting [2]) is under 5 µM.

Values taken from US20150111815A1, “NOVEL CYCLOSPORIN DERIVATIVES FOR THE TREATMENT AND PREVENTION OF VIRAL INFECTIONS” (S&T Global Inc., priority 2011, published 2015).
